Among the test systems are ACHN renal; SK-MEL-5 melanoma; SNB-75 CNS; NCI-H522 lung; MCF7 breast; CCRF-CEM leukemia; RPMI-8226 leukemia; A498 renal; OVCAR-5 ovarian; HL-60(TB) leukemia.
Common to all, as to assay: inhibition of tumour cell growth, NCI panel, 48 h

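Exposure lasted 48 hours, with cells grown in 96-well plates and compounds tested at five concentrations. The concentration for 50% growth inhibition is given as GI50. TGI marks complete inhibition of growth.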

`Fc1cccc(Cl)c1Cn1c(-c2c(F)cccc2Cl)nc2ccccc21`: the GI50 with ACHN renal is 18.9 µM; in the assay on SK-MEL-5 melanoma, 11.6 µM; with SNB-75 CNS it was 22.1 µM; with NCI-H522 lung, 13.3 µM; in the assay with MCF7 breast, 20 µM; in the assay on CCRF-CEM leukemia it was 26.2 µM. The GI50 in the assay on RPMI-8226 leukemia was 13.3 µM; with A498 renal it was 19.2 µM; in the assay with OVCAR-5 ovarian, 24.9 µM; in the assay with HL-60(TB) leukemia, 3.86 µM. The TGI in the assay on ACHN renal is 41.4 µM; in the assay on SK-MEL-5 melanoma it was 29.8 µM; in the assay on SNB-75 CNS it was 69.3 µM; with NCI-H522 lung it was 44.5 µM; in the assay on MCF7 breast, 57.8 µM; in the assay with CCRF-CEM leukemia it was over 100 µM. For the same molecule, the TGI with RPMI-8226 leukemia worked out at 60 µM; in the assay with A498 renal, 36.6 µM; in the assay with OVCAR-5 ovarian it was 95.8 µM; in the assay with HL-60(TB) leukemia, 74.6 µM.

In the case of `NC(=O)c1sc(-n2cnc3ccc(C(F)(F)F)cc32)cc1OCc1ccccc1Br`, the GI50 was 5.54 µM with ACHN renal; 0.916 µM with SK-MEL-5 melanoma; 6.11 µM with SNB-75 CNS; 0.793 µM with NCI-H522 lung; 0.805 µM in the assay with MCF7 breast; 0.685 µM with CCRF-CEM leukemia. Further, the GI50 in the assay on RPMI-8226 leukemia was 2.7 µM; in the assay on A498 renal it was 2.24 µM; with OVCAR-5 ovarian, 1.46 µM; with HL-60(TB) leukemia it was 0.558 µM. For the same molecule, the TGI is over 25 µM in the assay with ACHN renal; 6.78 µM with SK-MEL-5 melanoma; over 25 µM in the assay on SNB-75 CNS; 5.71 µM in the assay with NCI-H522 lung; over 6.28 µM in the assay on MCF7 breast; over 25 µM in the assay with CCRF-CEM leukemia. In addition, the TGI in the assay on RPMI-8226 leukemia is over 21.2 µM; with A498 renal it was 16.2 µM; in the assay with OVCAR-5 ovarian, over 19.2 µM; in the assay with HL-60(TB) leukemia it was 1.76 µM.

On to `Nc1nccc2c1ccn2-c1cccc(NC(=O)c2ccc(N3CCOCC3)c(C(F)(F)F)c2)c1`, for which the GI50 was 0.826 µM in the assay on ACHN renal; 0.386 µM with SK-MEL-5 melanoma; 0.307 µM in the assay on SNB-75 CNS; 0.288 µM in the assay with NCI-H522 lung; 0.181 µM in the assay with MCF7 breast; 1.01 µM in the assay on CCRF-CEM leukemia. Moreover, the GI50 in the assay on RPMI-8226 leukemia was 0.992 µM; in the assay with A498 renal, 0.304 µM; in the assay with OVCAR-5 ovarian, 1.84 µM; in the assay with HL-60(TB) leukemia, 1.09 µM. For the same molecule, the TGI with ACHN renal is 11.5 µM; with SK-MEL-5 melanoma it was 1.75 µM; in the assay on SNB-75 CNS, 2.25 µM; in the assay on NCI-H522 lung it was 2.45 µM; with MCF7 breast, over 18.5 µM; with CCRF-CEM leukemia, over 50 µM. The TGI in the assay on RPMI-8226 leukemia was 4.98 µM; in the assay with A498 renal, 2.05 µM; with OVCAR-5 ovarian, over 50 µM; in the assay on HL-60(TB) leukemia, 7.83 µM.

Consider `O=C1/C(=C/c2ccc(Cl)c(Cl)c2)CNC/C1=C\c1ccc(Cl)c(Cl)c1`, for which the TGI in the assay on ACHN renal was 35.6 µM; with SK-MEL-5 melanoma, over 70.4 µM; in the assay with SNB-75 CNS, 33.9 µM; with NCI-H522 lung, 26.7 µM; in the assay on MCF7 breast it was 50 µM; in the assay on CCRF-CEM leukemia it was 5.68 µM. Besides, the TGI in the assay with RPMI-8226 leukemia is over 49.8 µM; with A498 renal, 32.2 µM; in the assay with OVCAR-5 ovarian it was 37.4 µM; in the assay on HL-60(TB) leukemia, over 64.2 µM.

Turning to `Nc1nc(-c2ccc(Cl)cc2)cc(-c2ccc(Cl)cc2)c1-c1nc2ccccc2o1`, the GI50 was 17.4 µM in the assay with ACHN renal; 15.4 µM with SK-MEL-5 melanoma; 15 µM with SNB-75 CNS; 15 µM in the assay on NCI-H522 lung; 10.6 µM with MCF7 breast; 11.4 µM with CCRF-CEM leukemia. Also, the GI50 is 13.7 µM with RPMI-8226 leukemia, 19.6 µM in the assay on A498 renal, 20.7 µM in the assay with OVCAR-5 ovarian and 17.9 µM with HL-60(TB) leukemia. For the same molecule, the TGI was determined as 33.2 µM in the assay on ACHN renal; 29.9 µM with SK-MEL-5 melanoma; 30 µM in the assay on SNB-75 CNS; 30.5 µM in the assay with NCI-H522 lung; 35.7 µM in the assay on MCF7 breast; 34.1 µM with CCRF-CEM leukemia. Further, the TGI with RPMI-8226 leukemia was determined as 28.3 µM; in the assay on A498 renal it was 34.6 µM; with OVCAR-5 ovarian it was 39.1 µM; in the assay on HL-60(TB) leukemia it was 37.2 µM.

As for `COc1cc(-c2nc(-c3ccc(-c4nc5ccc(F)cc5[nH]4)cc3)no2)cc(OC)c1OC`, the GI50 with ACHN renal is 3.72 µM; with SK-MEL-5 melanoma it was 2.22 µM; in the assay with SNB-75 CNS it was 7.74 µM; in the assay with NCI-H522 lung it was 3.04 µM; in the assay on MCF7 breast it was 2.88 µM; in the assay on CCRF-CEM leukemia, 2.97 µM. The GI50 with RPMI-8226 leukemia was 1.94 µM; in the assay with A498 renal, 4.19 µM; in the assay on OVCAR-5 ovarian, 5.59 µM; in the assay on HL-60(TB) leukemia, 2.24 µM. Further, the TGI worked out at 13.6 µM with ACHN renal; 10.2 µM in the assay on SK-MEL-5 melanoma; 62.4 µM in the assay on SNB-75 CNS; 8.98 µM in the assay with NCI-H522 lung; 13.5 µM in the assay with MCF7 breast; 22.3 µM with CCRF-CEM leukemia. The TGI in the assay on RPMI-8226 leukemia stood at 5.35 µM; with A498 renal, 26.1 µM; in the assay with OVCAR-5 ovarian, 34.5 µM; in the assay on HL-60(TB) leukemia it was 5.35 µM.

Regarding `COc1ccc(-c2nc(-c3ccccn3)c(-c3ccccn3)n2CC(C)C)cc1OC1CCCC1`, the GI50 in the assay with ACHN renal is 6.92 µM; with SK-MEL-5 melanoma, 11.4 µM; in the assay on SNB-75 CNS it was 24 µM; in the assay on NCI-H522 lung it was 31.4 µM; with MCF7 breast, 6.58 µM; with CCRF-CEM leukemia, 7.54 µM. Also, the GI50 in the assay with RPMI-8226 leukemia is 27.4 µM; with A498 renal, 16.5 µM; in the assay with OVCAR-5 ovarian it was 26.5 µM; in the assay with HL-60(TB) leukemia, 21.2 µM. The TGI with ACHN renal was over 165 µM; in the assay on SK-MEL-5 melanoma, 38.4 µM; with SNB-75 CNS, 123 µM; in the assay with NCI-H522 lung, 81.3 µM; in the assay with MCF7 breast, 115 µM; with CCRF-CEM leukemia, 59.8 µM. Also, the TGI in the assay on RPMI-8226 leukemia was 80.5 µM; in the assay with A498 renal, 82.7 µM; in the assay with OVCAR-5 ovarian, over 165 µM; with HL-60(TB) leukemia it was 58.8 µM.

Take `COc1ccc(/C=N\NC(=O)c2ccc3nc(-c4ccc(Cl)cc4)[nH]c3c2)cc1`: the GI50 with ACHN renal is 2 µM; with SK-MEL-5 melanoma, 1.89 µM; with SNB-75 CNS, 1.53 µM; with NCI-H522 lung it was 7.6 µM; with MCF7 breast it was 1.47 µM; in the assay on CCRF-CEM leukemia, 4.9 µM. The GI50 in the assay on RPMI-8226 leukemia was 0.997 µM; with A498 renal it was 2.45 µM; in the assay on OVCAR-5 ovarian, 2.35 µM; in the assay with HL-60(TB) leukemia, 13 µM. Besides, the TGI was 5.04 µM with ACHN renal; 3.88 µM in the assay on SK-MEL-5 melanoma; 4.58 µM in the assay with SNB-75 CNS; 81.5 µM with NCI-H522 lung; 3.84 µM in the assay with MCF7 breast; over 100 µM in the assay on CCRF-CEM leukemia. Further, the TGI in the assay on RPMI-8226 leukemia was 4.77 µM; in the assay on A498 renal, 9.87 µM; in the assay with OVCAR-5 ovarian, 6.89 µM; in the assay with HL-60(TB) leukemia, over 100 µM.

(Values after PubChem BioAssay (NCI).)
